The source of these data is US20230074545A1, “TREATMENT OF CANCER WITH CDK12/13 INHIBITORS” (Kinnate Biopharma Inc., priority 2019, published 2023).

One may read the IC50 as the concentration that inhibits the measured activity by half. A high value points to a need for much substance.

The test system of assay [1] is RNA polymerase II. The assay is described as follows: Inhibition of phosphorylation of RNA polymerase II in NCI-H82 cells. It is filed as cell-based. As to conditions: Homo sapiens, 2 hours, phosphorylated/total RNA polymerase II. How it is done:
CDK12 and CDK13 phosphorylate RNA polymerase II. The ability of compound 1 to inhibit phosphorylation of RNA polymerase II was analyzed in NCI-H82 cells. 200,000 cells were plated in each well of a 96 well MSD plate. Cells were treated with compound 1, THZ531 (a positive control), or E9 at concentrations between 4 μM to 126.4 pM (0.5 log serial dilutions) for 2 hours. THZ531 and E9 are further discussed in Gao et al, Cell Chemical Biology 2017. The amount of phosphorylated RNA polymerase II and the total amount of RNA polymerase II was analyzed using antibodies. The values were normalized by taking the ratio of the phosphorylated RNA polymerase II to the total RNA polymerase II. As depicted in FIG. 3A (THZ531), FIG. 3B (Compound 1), and Table 6, increasing the concentration of compound 1 results in a dose-specific increase in the inhibition of phosphorylation of RNA polymerase II.

Assay [2] concerns RNA polymerase II. The assay is described as follows: Phosphorylation of RNA polymerase II (pS2/S2) in HCC70 xenograft. To be noted: intravenous; compound 4 20 or 25 mg/kg, compound 5 10 or 25 mg/kg; 0.5, 6 and 24 hours after the dose. It is filed as in vivo, CB-17 SCID mice. How it is done: The ability of compound 4 and compound 5 to inhibit phosphorylation of RNA polymerase II at the S2 unit was analyzed in a mouse xenograft model of triple-negative breast cancer. CB-17 SCID mice were inoculated with the HCC70 cells as the in vivo model for triple negative breast cancer. Each mouse was inoculated subcutaneously on the right flank with HCC70 tumor cells (5×106) in 0.1 mL of RPMI-1640 Medium and Matrigel mixture (1:1 ratio) for tumor development. The treatment started when the mean tumor size reached approximately 100-150 mm^3. Mice were treated intravenously with vehicle only, 20 mg/kg of compound 4, 25 mg/kg of compound 4, 10 mg/kg of compound 5, or 25 mg/kg of compound 5 for 2 hours. Measurements were taken at 0.5 hours, 6 hours and 24 hours after the dose. The amount of phosphorylated RNA polymerase II and the total amount of RNA polymerase II was analyzed. The values were normalized by taking the ratio of the phosphorylated RNA polymerase II to the total RNA polymerase II (pS2/S2).

Assay [3] deals with HCC70 tumors. The assay can be described thus: HCC70 mouse xenograft model of triple-negative breast cancer. It counts as in vivo, CB-17 SCID female mice. To be noted: compared to vehicle control. The text has this:
To test the efficacy of the compounds in vivo, studies were done in mouse xenografts. For all studies, general procedures for animal care and housing were done in accordance with the standard, Commission on Life Sciences, National Research Council, Standard operating procedures (SOPs) of Pharmaron, Inc (Beijing, China). The mice were kept in laminar flow rooms at constant temperature and humidity with 3-5 mice in each cage with bedding changed once weekly. Animals were housed in polycarbonate cage which is in the size of 300×180×150 mm^3 and in an environmentally monitored, well-ventilated room maintained at a temperature of (22±3° C.) and a relative humidity of 40%-70% on a 12 hour:12 hour light:dark cycle with full spectrum lighting. […]
Each mouse was inoculated subcutaneously on the right flank with HCC70 tumor cells (5×10^6) in 0.1 ml of RPMI-1640 Medium and Matrigel mixture (1:1 ratio) for tumor development. […] All study animals were monitored not only tumor growth but also behavior such as mobility, food and water consumption (by cage side checking only), body weight (BW), eye/hair matting and any other abnormal effect. Any mortality and/or abnormal clinical signs were recorded.
The measurement of tumor size was conducted twice weekly with a caliper and recorded. […]
Protocol-required measurements and observations were recorded manually onto excel spread sheets. […]

`C=CC(=O)Nc1ccc(C(=O)N2CC[C@@H](Nc3ncc(Cl)c(OC)n3)C2)cc1` [Compound 1, (R)-N-(4-(3-((5-chloro-4-methoxypyrimidin-2-yl)amino)pyrrolidine-1-carbonyl)phenyl)acrylamide] yielded an IC50 in assay [1] of 12.5 nM.

Consider `C=CC(=O)Nc1ccc(C(=O)N2CC[C@@H](Nc3ncc(C#N)cn3)C2)cc1` [Compound 4, (R)-N-(4-(3-((5-cyanopyrimidin-2-yl)amino)pyrrolidine-1-carbonyl)phenyl)acrylamide], for which the “pS2/S2 compared to treatment with the vehicle alone” value in assay [2] is “reduced the pS2/S2 at all time points”. Also, the T/C in assay [3] (20 mg/kg intravenously biweekly for 14 days) is −37%; in assay [3] (25 mg/kg intravenously biweekly for 14 days) it was −39%.
